The results in this text go back to ChEMBL document CHEMBL3272271, “Folate antagonists. 13. 2,4-Diamino-6-](alpha,alpha,alpha-trifluoro-m-tolyl)thio]quinazoline and related 2,4-diamino-6-[(phenyl- and naphthyl)thio]quinazolines, a unique class of antimetabolites with extraordinary antimalarial and antibacterial effects” (J Med Chem, 1978).

≈ marks a conversion by molar mass, not a printed value. Calls of active or inactive are those of the source. The calls are words filed in the database; no cut-off is given here.

In general, MIC refers to the least concentration at which growth counts as inhibited.

The subject of the first assay is Plasmodium berghei. As to the kind of experiment: Antimalarial activity against Plasmodium berghei infected in mouse assessed as increase in mean survival days of host at 2.5 mg/kg, sc administered 72 hrs after infection relative to control. The assay is classed as functional. To be noted: route subcutaneous.
On to `Nc1nc(N)c2cc(Sc3c(Cl)c(Cl)c(Cl)c(Cl)c3Cl)ccc2n1`, for which the MST came out at 2 days.
The same measure, in the same setting: the same measure for `Cc1c(Sc2ccc3ccccc3c2)ccc2nc(N)nc(N)c12`: 6.5 days; for `Cc1c(Sc2ccc(Cl)c(Cl)c2)ccc2nc(N)nc(N)c12`: 2.5 days.

Another assay has as its system Plasmodium berghei. As to the kind of experiment: Antimalarial activity against trophozoite-induced Plasmodium berghei infected in mouse assessed as daily dose required to suppression of 90% parasite infection administered with diet for 6 days. It counts as functional.
Settings: not given
Regarding `Nc1nc(N)c2cc(Sc3cc(Cl)ccc3Cl)ccc2n1`, the SD90 was found to be 4.5 mg/kg/day.
Still for that read-out and setting: as for `CN(Cc1ccc(Cl)c(Cl)c1)c1ccc2nc(N)nc(N)c2c1.Cl`, the figure is 0.16 mg/kg/day.

The subject of another assay is Plasmodium berghei. Nature of the assay: Antimalarial activity against Plasmodium berghei infected in mouse assessed as disease cure from parasite infection at 80 mg/kg, sc administered 72 hrs after infection. The assay is classed as functional, organism-based. Further details: dose 80 mg/kg.
Settings: not given
On to `Nc1nc(N)c2cc(Sc3c(Cl)c(Cl)c(Cl)c(Cl)c3Cl)ccc2n1`, for which the outcome was Active.
The same measure, in the same setting: the same measure for `Cc1c(Sc2ccc3ccccc3c2)ccc2nc(N)nc(N)c12`: “Active”; for `Cc1c(Sc2ccc(Cl)c(Cl)c2)ccc2nc(N)nc(N)c12`: “Active”.

In another assay the test system is Plasmodium berghei. As to the kind of experiment: Antimalarial activity against Plasmodium berghei infected in mouse assessed as disease cure from parasite infection at 40 mg/kg, sc administered 72 hrs after infection. The assay is classed as functional, organism-based. More on the design: dose 40 mg/kg.
Settings: not given
`Nc1nc(N)c2cc(Sc3c(Cl)c(Cl)c(Cl)c(Cl)c3Cl)ccc2n1`: the result was Active.
For `Cc1c(Sc2ccc3ccccc3c2)ccc2nc(N)nc(N)c12`, the outcome was Active.
Take `Cc1c(Sc2ccc(Cl)c(Cl)c2)ccc2nc(N)nc(N)c12`: the outcome was Active.

In another assay the test system is Plasmodium berghei. As to the kind of experiment: Antimalarial activity against Plasmodium berghei infected in mouse assessed as disease cure from parasite infection at 640 mg/kg, sc administered 72 hrs after infection. Further details: dose 640 mg/kg.
Settings: not given
It counts as functional, organism-based.
As for `Nc1nc(N)c2cc(Sc3cc(Cl)ccc3Cl)ccc2n1`, the outcome was Active.
The same measure, in the same setting: as for `Cc1c(Sc2ccc3ccccc3c2)ccc2nc(N)nc(N)c12`, the entry is “Active”; as for `Cc1c(Sc2ccc(Cl)c(Cl)c2)ccc2nc(N)nc(N)c12`, “Active”.

A further assay concerns Pseudomonas aeruginosa. Nature of the assay: Antibacterial activity against Pseudomonas aeruginosa 28 by gradient plate test. It counts as functional.
Settings: not given
`Nc1nc(N)c2cc(Sc3cc(Cl)ccc3Cl)ccc2n1` displayed an MIC of more than 25 µg/mL.
On the same count and under the same terms, as for `Nc1nc(N)c2cc(Sc3c(Cl)c(Cl)c(Cl)c(Cl)c3Cl)ccc2n1`, the figure is more than 25 µg/mL.
As to `Cc1c(Sc2ccc3ccccc3c2)ccc2nc(N)nc(N)c12`, the MIC was more than 25 µg/mL.

In a further assay the test system is Plasmodium berghei. Nature of the assay: Antimalarial activity against Plasmodium berghei infected in mouse assessed as increase in mean survival days of host at 20 mg/kg, sc administered 72 hrs after infection relative to control. The settings on record: route subcutaneous. It counts as functional.
Consider `Nc1nc(N)c2cc(Sc3cc(Cl)ccc3Cl)ccc2n1`, for which the MST stood at 5.9 days.
Same read-out and setting: as for `Nc1nc(N)c2cc(Sc3c(Cl)c(Cl)c(Cl)c(Cl)c3Cl)ccc2n1`, the figure is 10.7 days; as for `Cc1c(Sc2ccc3ccccc3c2)ccc2nc(N)nc(N)c12`, 20.9 days.
With `Cc1c(Sc2ccc(Cl)c(Cl)c2)ccc2nc(N)nc(N)c12`, the MST was 15.4 days.

The test system of another assay is Plasmodium berghei. As to the kind of experiment: Antimalarial activity against Plasmodium berghei infected in mouse assessed as increase in mean survival days of host at 40 mg/kg, sc administered 72 hrs after infection relative to control. The settings on record: route subcutaneous. It counts as functional.
In the case of `Nc1nc(N)c2cc(Sc3cc(Cl)ccc3Cl)ccc2n1`, the MST was found to be 8.2 days.
`Nc1nc(N)c2cc(Sc3c(Cl)c(Cl)c(Cl)c(Cl)c3Cl)ccc2n1`: the MST turned out to be 18.1 days.

A further assay relates to Plasmodium berghei. Nature of the assay: Antimalarial activity against Plasmodium berghei infected in mouse assessed as increase in mean survival days of host at 1.25 mg/kg, sc administered 72 hrs after infection relative to control. It counts as functional. The settings on record: route subcutaneous.
For `Cc1c(Sc2ccc3ccccc3c2)ccc2nc(N)nc(N)c12`, the MST was 1.9 days.
Take `Cc1c(Sc2ccc(Cl)c(Cl)c2)ccc2nc(N)nc(N)c12`: the MST was 1.3 days.

For the next assay, the system named is Enterococcus faecalis. Nature of the assay: Antibacterial activity against Streptococcus faecalis MGH-2 by gradient plate test.
Settings: not given
The assay is classed as functional.
`Nc1nc(N)c2cc(Sc3cc(Cl)ccc3Cl)ccc2n1` displayed an MIC of less than 0.25 µg/mL.
The compound `Nc1nc(N)c2cc(Sc3c(Cl)c(Cl)c(Cl)c(Cl)c3Cl)ccc2n1` yielded an MIC of 1.5 µg/mL (≈ 3.4 µM).
On the same count and under the same terms, as for `Cc1c(Sc2ccc3ccccc3c2)ccc2nc(N)nc(N)c12`, the figure is less than 2.5 µg/mL.

In the next assay the test system is Plasmodium berghei. As to the kind of experiment: Antimalarial activity against Plasmodium berghei infected in mouse assessed as disease cure from parasite infection at 320 mg/kg, sc administered 72 hrs after infection.
Settings: not given
More on the design: dose 320 mg/kg. It counts as functional, organism-based.
In the case of `Nc1nc(N)c2cc(Sc3cc(Cl)ccc3Cl)ccc2n1`, the result was Active.
`Nc1nc(N)c2cc(Sc3c(Cl)c(Cl)c(Cl)c(Cl)c3Cl)ccc2n1`: the result was Active.
On the same count and under the same terms, as for `Cc1c(Sc2ccc3ccccc3c2)ccc2nc(N)nc(N)c12`, the entry is “Active”.
On the same count and under the same terms, as for `Cc1c(Sc2ccc(Cl)c(Cl)c2)ccc2nc(N)nc(N)c12`, the entry is “Active”.

Another assay deals with Plasmodium berghei. Nature of the assay: Antimalarial activity against Plasmodium berghei infected in mouse assessed as disease cure from parasite infection at 20 mg/kg, sc administered 72 hrs after infection. More on the design: dose 20 mg/kg.
Settings: not given
The assay is classed as functional, organism-based.
On to `Cc1c(Sc2ccc3ccccc3c2)ccc2nc(N)nc(N)c12`, for which the result was Active.
For the compound `Cc1c(Sc2ccc(Cl)c(Cl)c2)ccc2nc(N)nc(N)c12`, the result was Active.

Another assay has as its system Escherichia coli. Nature of the assay: Antibacterial activity against Escherichia coli Vogel by gradient plate test.
Settings: not given
It counts as functional.
The compound `Nc1nc(N)c2cc(Sc3cc(Cl)ccc3Cl)ccc2n1` showed an MIC of 1 µg/mL (≈ 2.97 µM).
As to `Nc1nc(N)c2cc(Sc3c(Cl)c(Cl)c(Cl)c(Cl)c3Cl)ccc2n1`, the MIC was more than 25 µg/mL.
Still for that read-out and setting: as for `Cc1c(Sc2ccc3ccccc3c2)ccc2nc(N)nc(N)c12`, the figure is less than 2.5 µg/mL.

For another assay, the system named is Plasmodium berghei. Nature of the assay: Ratio of quinine hydrochloride SD90 to compound SD90 for trophozoite-induced Plasmodium berghei infected in mouse assessed as daily dose required to suppression of 90% parasite infection administered with diet for 6 days. The assay is classed as functional.
Settings: not given
As to `Nc1nc(N)c2cc(Sc3cc(Cl)ccc3Cl)ccc2n1`, the Ratio is reported as 17.
On the same count and under the same terms, as for `CN(Cc1ccc(Cl)c(Cl)c1)c1ccc2nc(N)nc(N)c2c1.Cl`, the figure is 470.

For a further assay, the system named is Staphylococcus aureus. Nature of the assay: Antibacterial activity against Staphylococcus aureus UC-96 by gradient plate test. It counts as functional.
Settings: not given
Consider `Nc1nc(N)c2cc(Sc3cc(Cl)ccc3Cl)ccc2n1`, for which the MIC was less than 0.25 µg/mL.
Still for that read-out and setting: the same measure for `Nc1nc(N)c2cc(Sc3c(Cl)c(Cl)c(Cl)c(Cl)c3Cl)ccc2n1`: 10 µg/mL (≈ 22.7 µM); for `Cc1c(Sc2ccc3ccccc3c2)ccc2nc(N)nc(N)c12`: less than 2.5 µg/mL.

The next assay deals with Shigella sonnei. As to the kind of experiment: Antibacterial activity against Shigella sonnei C-10 by gradient plate test. It counts as functional.
Settings: not given
`Nc1nc(N)c2cc(Sc3cc(Cl)ccc3Cl)ccc2n1` returned an MIC of 10 µg/mL (≈ 29.7 µM).
Same read-out and setting: the same measure for `Nc1nc(N)c2cc(Sc3c(Cl)c(Cl)c(Cl)c(Cl)c3Cl)ccc2n1`: more than 25 µg/mL.
`Cc1c(Sc2ccc3ccccc3c2)ccc2nc(N)nc(N)c12` yielded an MIC of less than 2.5 µg/mL.

A further assay deals with Plasmodium berghei. Nature of the assay: Antimalarial activity against Plasmodium berghei infected in mouse assessed as increase in mean survival days of host at 80 mg/kg, sc administered 72 hrs after infection relative to control. It counts as functional. The settings on record: route subcutaneous.
As to `Nc1nc(N)c2cc(Sc3cc(Cl)ccc3Cl)ccc2n1`, the MST is 9.8 days.

The test system of another assay is Plasmodium berghei. As to the kind of experiment: Antimalarial activity against Plasmodium berghei infected in mouse assessed as disease cure from parasite infection at 160 mg/kg, sc administered 72 hrs after infection. The assay is classed as functional, organism-based. Further details: dose 160 mg/kg.
Settings: not given
As for `Nc1nc(N)c2cc(Sc3cc(Cl)ccc3Cl)ccc2n1`, the result was Active.
The same measure, in the same setting: as for `Nc1nc(N)c2cc(Sc3c(Cl)c(Cl)c(Cl)c(Cl)c3Cl)ccc2n1`, the entry is “Active”; as for `Cc1c(Sc2ccc3ccccc3c2)ccc2nc(N)nc(N)c12`, “Active”; as for `Cc1c(Sc2ccc(Cl)c(Cl)c2)ccc2nc(N)nc(N)c12`, “Active”.

In the next assay the test system is Staphylococcus aureus. Nature of the assay: Antibacterial activity against drug-resistant Staphylococcus aureus S18713 by gradient plate test. The assay is classed as functional.
Settings: not given
Take `Nc1nc(N)c2cc(Sc3cc(Cl)ccc3Cl)ccc2n1`: the MIC was less than 0.25 µg/mL.
As for `Nc1nc(N)c2cc(Sc3c(Cl)c(Cl)c(Cl)c(Cl)c3Cl)ccc2n1`, the MIC turned out to be 20 µg/mL (≈ 45.4 µM).
The same measure, in the same setting: the same measure for `Cc1c(Sc2ccc3ccccc3c2)ccc2nc(N)nc(N)c12`: less than 2.5 µg/mL.

The subject of a further assay is Plasmodium berghei. Nature of the assay: Antimalarial activity against Plasmodium berghei infected in mouse assessed as increase in mean survival days of host at 5 mg/kg, sc administered 72 hrs after infection relative to control. The assay is classed as functional. The settings on record: route subcutaneous.
On to `Nc1nc(N)c2cc(Sc3cc(Cl)ccc3Cl)ccc2n1`, for which the MST amounted to 2.3 days.
For the compound `Nc1nc(N)c2cc(Sc3c(Cl)c(Cl)c(Cl)c(Cl)c3Cl)ccc2n1`, the MST worked out at 2.7 days.
Consider `Cc1c(Sc2ccc3ccccc3c2)ccc2nc(N)nc(N)c12`, for which the MST turned out to be 10.9 days.
In the case of `Cc1c(Sc2ccc(Cl)c(Cl)c2)ccc2nc(N)nc(N)c12`, the MST stood at 7.3 days.

The next assay relates to Plasmodium berghei. Nature of the assay: Antimalarial activity against Plasmodium berghei infected in mouse assessed as increase in mean survival days of host at 10 mg/kg, sc administered 72 hrs after infection relative to control. To be noted: route subcutaneous. It counts as functional.
On to `Nc1nc(N)c2cc(Sc3cc(Cl)ccc3Cl)ccc2n1`, for which the MST came out at 2.9 days.
Take `Nc1nc(N)c2cc(Sc3c(Cl)c(Cl)c(Cl)c(Cl)c3Cl)ccc2n1`: the MST amounted to 6.6 days.
On to `Cc1c(Sc2ccc3ccccc3c2)ccc2nc(N)nc(N)c12`, for which the MST is 12.9 days.
For `Cc1c(Sc2ccc(Cl)c(Cl)c2)ccc2nc(N)nc(N)c12`, the MST was 7.9 days.

Another assay deals with Plasmodium berghei. Nature of the assay: Antimalarial activity against Plasmodium berghei infected in mouse assessed as increase in mean survival days of host at 160 mg/kg, sc administered 72 hrs after infection relative to control. The assay is classed as functional. To be noted: route subcutaneous.
Regarding `Nc1nc(N)c2cc(Sc3cc(Cl)ccc3Cl)ccc2n1`, the MST was 8.8 days.
